Experimental data reported in patent publication US12150945B2, “Liver disease” (Lipocine Inc., priority 2018, dated 2024).

Key:
Type in all cases: in vivo, human
[1] = system: liver function enzymes; experiment: Liver function enzymes (ALT, AST, ALP, GGT, bilirubin), change from baseline to end of study, trial of Example 1
Description: (§1) Oral testosterone therapy was evaluated in a multicenter, phase 3, randomized, open-label, active controlled, parallel-group study that included a 13-week efficacy phase and a 52-week safety phase. An active arm in which subjects received T gel was included for safety evaluation only.
(§2) Subjects were randomized in a 2:1 ratio to oral testosterone undecanoate or T gel. oral testosterone undecanoate subjects started at a dose of 225 mg TU (“testosterone undecanoate”) taken twice daily (total daily dose: 450 mg TU) every 12 hours. For optimal lymphatic absorption oral testosterone undecanoate must be administered with a meal. Therefore, subjects were instructed to administer oral testosterone undecanoate after a standard meal (defined as a meal consisting of 800 to 1400 calories with approximately 20% to 35% fat content). The oral testosterone undecanoate dose was titrated at Weeks 4 and 8, if necessary, based on results of intensive 24-hour PK blood sampling obtained at Weeks 3 and 7, respectively. Oral testosterone undecanoate subjects stayed at the clinic overnight during each intensive PK blood sampling period. […] Oral testosterone undecanoate dose levels permitted during the study were 150 mg BID, 225 mg BID, and 300 mg BID. Data collected during an intensive 24-hour PK sampling overnight stay at Week 13 were used for efficacy analysis; dose was not adjusted at this visit. Additional outpatient visits were conducted at Weeks 26, 39, and 52 during which single blood draws were performed 3 to 6 hours post morning dose. Dose was not adjusted during these visits.
(§3) T gel (ANDROGEL®) (testosterone gel for topical use) 1.62%, AbbVie, Chicago, Illinois, US) was supplied in non-aerosol, metered dose pumps that deliver 20.25 mg T per complete pump actuation. T gel was dosed according to product labeling. Subjects receiving T gel completed outpatient visits at Weeks 2 and 4 with single blood draws to determine titration and at Weeks 3 and 5 for dose changes, if necessary. They also completed an outpatient visit at Week 7 for safety assessments and at Weeks 13, 26, 39 and 52 during which single blood samples were obtained 3 to 6 hours after the morning dose. Dose was not adjusted during these visits. Overnight clinic stays were not required for T gel subjects.
(§4) Safety endpoints included adverse events (AEs), physical examination findings, vital signs, electrocardiograms (ECGs), and clinical laboratory tests. AEs were classified using the Medical Dictionary for Regulatory Activities (Version 16.1). Safety endpoints were summarized using descriptive statistics. Lab parameters were evaluated using two sample t-tests comparing change from baseline to end of study (EOS) across oral testosterone undecanoate and T gel subjects with p-values <0.05 considered statistically significant.

[2] = system: lipids; experiment: Lipid parameters (HDL, LDL, total cholesterol, triglycerides, non-HDL cholesterol), change from baseline to end of study, trial of Example 1
Description: as §1, §2, §3, §4

[3] = system: liver fat; experiment: Liver Fat Study: liver fat by MRI-PDFF in hypogonadal males treated with LPCN 1144 (Example 6); conditions: for Mean relative liver fat % change: 16 weeks of treatment
Description: In an a prospective design open-label, multi-center, single arm ‘Liver Fat Study’ evaluating LPCN 1144 (oral testosterone undecanoate) treatment in hypogonadal patients, baseline % liver fat was assessed via MRI-PDFF in a subset of study patients (N=36).
(§5) This example is part of an ongoing Liver Fat Study which is an open-label, multi-center, single arm study evaluating LPCN 1144 treatment (e.g., androgen therapy, testosterone therapy, oral testosterone ester, or 225 mg testosterone undecanoate orally) in a cohort of 36 hypogonadal males (NCT03868059). Subjects with at least 10% baseline liver fat were evaluated which is indicative of subjects with NAFLD with the potential to have NASH. Interim results of seven of the nine subjects in the Liver Fat Study with baseline liver fat of at least 10% are presented as two subjects were unable to schedule an eight-week MRI-PDFF visit. Baseline mean liver fat of these seven subjects was 21.0%.
(§6) An MRI-PDFF study of 36 male hypogonadal subjects (having 2 morning testosterone levels of 300 ng/dL or less) was performed as part of an ongoing trial. Basic baseline labs including liver function tests (e.g., AST & ALT) and serum triglycerides were collected and analyzed. It was found by non-linear regression, that BMI (ALT, AST, serum Triglyceride) was associated with liver fat (P<0.006). It was found by non-linear regression, that serum triglyceride levels (obesity, hypertension, type 2 diabetes) were associated with liver fat (P<0.006).

[4] = system: ALT, GGT, BUN, total cholesterol, LDL-C, triglyceride; experiment: Liver Fat Study: normalization of labs (ALT, GGT, BUN, total cholesterol, LDL-C, triglyceride) at end of study (Example 6)
Description: as §5, §6

[5] = system: C-Reactive Protein; experiment: C-Reactive Protein, change from baseline to end of study, trial of Example 1; conditions: Safety Set; subjects with CRP values > 95.23 excluded
[6] = 4th quartile patients based on lab parameter level, 1 year study
[7] = Safety Set, baseline to end of study
[8] = 4th quartile patients based on lab parameter level, 1 Year Oral TU Study
[9] = interim, eight-week MRI-PDFF, seven subjects with baseline liver fat of at least 10%

CCCCCCCCCCC(=O)O[C@H]1CC[C@H]2[C@@H]3CCC4=CC(=O)CC[C@]4(C)[C@H]3CC[C@]12C [oral testosterone undecanoate, testosterone undecanoate]
GGT, mean change from baseline [1, 6]: −7.0 U/L | GGT, mean change from baseline, % [1, 6]: −7.4% | ALT, mean (SD) change from baseline to end of study [1, 7]: −3.07 (11.22) U/L | AST, mean (SD) change from baseline to end of study [1, 7]: −1.5 (7.52) U/L | Alkaline phosphatase, mean (SD) change from baseline to end of study [1, 7]: −4.1 (13.33) U/L | Bilirubin, mean (SD) change from baseline to end of study [1, 7]: −0.43 (3.66) mcmol/L | GGT, mean (SD) change from baseline to end of study [1, 7]: −2.0 (12.50) U/L | LDL-C, mean change from baseline [2, 8]: -10.2 mg/dL | LDL-C, mean change from baseline, % [2, 8]: −6.1% | Non-HDL-C, mean change from baseline [2, 8]: -18.2 mg/dL | Non-HDL-C, mean change from baseline, % [2, 8]: −8.7% | Total Cholesterol, mean change from baseline [2, 8]: -20.2 mg/dL | Total Cholesterol, mean change from baseline, % [2, 8]: −7.9% | Triglycerides, mean change from baseline [2, 8]: -85.1 mg/dL | Triglycerides, mean change from baseline, % [2, 8]: −19.0% | Cholesterol, mean (SD) change from baseline to end of study [2, 7]: -0.24 (0.82) mmol/L | HDL cholesterol, mean (SD) change from baseline to end of study [2, 7]: −0.14 (0.22) mmol/L | LDL cholesterol, mean (SD) change from baseline to end of study [2, 7]: −0.05 (0.66) mmol/L | Triglyceride, mean (SD) change from baseline to end of study [2, 7]: −0.18 (1.14) mmol/L | Serum HDL cholesterol decrease at EOS ([2]; compared with T gel): significantly larger decrease | HDL cholesterol: subjects with a shift from normal at baseline to low at EOS ([2]; in vivo): 19.0% | other lipid parameters, difference between oral testosterone undecanoate and T gel ([2]; lipid parameters other than HDL cholesterol): No statistically significant differences | Mean relative liver fat % change ([3]; baseline liver fat of 8% or greater): −42% | Mean relative liver fat % change ([3]; baseline liver fat of 10% or greater): −40% | Mean relative liver fat % change ([3]; subjects having NAFLD (baseline liver fat of 5% or greater)): −33% | NAFLD resolved (baseline liver fat greater than or equal to 5% going to less than 5% at end of study), % of subjects ([3]; end of study): 48% | mean relative liver fat change in patients with NAFLD resolution ([3]; end of study): −55% | responder rate (% of patients with at least a 30% relative reduction in liver fat from baseline) ([3]; end of study, greater than or equal to 5% baseline liver fat): 71% | responder rate (% of patients with at least a 30% relative reduction in liver fat from baseline) ([3]; end of study, greater than or equal to 8% baseline liver fat): 80% | responder rate (% of patients with at least a 30% relative reduction in liver fat from baseline) ([3]; end of study, greater than or equal to 10% baseline liver fat): 70% | relative mean liver fat reduction from baseline [3, 9]: 38% | responder rate: at least a 4.1% absolute reduction in liver fat from baseline [3, 9]: 86% | responder rate: at least a 29% reduction in liver fat from baseline [3, 9]: 71% | absolute mean reduction from baseline of liver fat (MRI-PDFF) ([3]; interim, eight-week MRI-PDFF, seven subjects with baseline liver fat of at least 10%, baseline mean 21.0%): 7.6% | normalization rate for LDL-C [4]: 50% | normalization rate for total cholesterol [4]: 29% | normalization rate for triglyceride [4]: 21% | subjects with BUN normalization [4]: 60% | subjects with above normal GGT levels who ended the study with normal GGT levels [4]: 0% | subjects with above normal ALT levels who ended the study with normal ALT levels ([4]; mean baseline ALT 48.7): 100% | C-Reactive Protein, mean (SD) change from baseline to end of study [5]: −4.68 (30.94) nmol/L
